For twelve compounds, IC50 results are on record in US12209102B2, “Heterocyclic compounds and uses thereof” (Kumquat Biosciences Inc., priority 2022, dated 2025).

The target in one assay is T1, K-Ras WT (Homo sapiens, UniProt P01116).
T1 construct: made in house; host or cells: E. coli BL21 (DE3)
The assay is described as follows: HTRF resonance energy transfer assay, K-Ras WT / SOS1 interaction. It is filed as biochemical. Conditions: HTRF assay of Example 5; read-out: IC50 against K-Ras WT. The procedure, abridged:
(§1)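 Compounds, tested in duplicate at 10 μM down to 0.01 μM, were read after about 10 min or more by HTRF as the 665/620 nm emission ratio (337 nm excitation) to derive IC50. This ratio reports FRET between an anti-GST-Eu donor on GST-K-Ras (wild-type or mutant) and an anti-6His-XL665 acceptor on His-hSOS1. Buffer: ~5 mM HEPES pH 7.4, 150 mM NaCl, 1 mM DTT, 0.05% BSA, 0.0025% Igepal.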

In another assay the target is T2, K-Ras G12V (Homo sapiens, UniProt P01116, G12V).
T2 construct: made in house; host or cells: E. coli BL21 (DE3)
T2 sequence (P01116 1-188 isoform P01116-2 G12V): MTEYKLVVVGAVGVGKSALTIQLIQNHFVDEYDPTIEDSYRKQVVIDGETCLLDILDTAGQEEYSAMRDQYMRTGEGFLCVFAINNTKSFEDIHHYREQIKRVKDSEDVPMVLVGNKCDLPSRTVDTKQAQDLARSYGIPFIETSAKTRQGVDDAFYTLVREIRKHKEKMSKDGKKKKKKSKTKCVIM
In words: HTRF resonance energy transfer assay, K-Ras G12V / SOS1 interaction. It is filed as biochemical. The following applies: HTRF assay of Example 5; read-out: IC50 against K-Ras G12V. A digest of the protocol: as §1

For another assay, the system named is SW620 cells. The assay is described as follows: Ras cellular assay, growth of cells with K-Ras G12V mutation (CellTiter-Glo). The following applies: Homo sapiens, SW-620; cell growth, Example 9, G12V mutation; read-out: IC50 against SW620 cells. It is filed as cell-based. As to the method:
For example, this assay can be also used to assess a selective growth inhibition of a mutant Ras protein relative to a wildtype, or relative to a different mutant Ras protein.
SW620 (ATCC CCL-227) and Capan-1 (ATCC HTB-79) cell lines comprise a G12V mutation and can be used to assess Ras cellular signaling in vitro, e.g., in response to the compounds herein. SW620 culture medium is prepared with RPMI-1640 and 10% heat-inactivated FBS. Capan-1 culture medium is prepared with RPMI-1640 and 10% heat-inactivated FBS. A CellTiter-Glo (CTG) luminescent based assay (Promega) is used to assess growth of the cells, as a measurement of the ability of the compounds herein to inhibit Ras signaling in the cells. The cells (e.g., 800 per well) are seeded in their respective culture medium in standard tissue culture-treated 384-well format plates (Falcon #08-772-116) or ultra-low attachment surface 384-well format plates (S-Bio #MS-9384WZ). The day after plating, cells are treated with a dilution series (e.g., a 10 point 3-fold dilution series) of the compounds herein (e.g., approximately 40 μL final volume per well). Cell viability can be monitored (e.g., approximately 6 days later) according to the manufacturer's recommended instructions, where the CellTiter-Glo reagent is added (e.g., approximately 10 μL), vigorously mixed, covered, and placed on a plate shaker (e.g., approximately for 20 min) to ensure sufficient cell lysis prior to assessment of luminescent signal. The IC50 values are determined using the four parameter fit. The resulting IC50 value is a measurement of the ability of the compounds herein to reduce cell growth of Ras-driven cells (e.g., tumor cell lines) in vitro and/or in vivo.
A general note: ATP-based viability assays read luminescence as a measure of living cells.

A further assay deals with T3, K-Ras G12D (Homo sapiens, UniProt P01116, G12D).
T3 construct: made in house; host or cells: E. coli BL21 (DE3)
T3 sequence (P01116 1-188 isoform P01116-2 G12D): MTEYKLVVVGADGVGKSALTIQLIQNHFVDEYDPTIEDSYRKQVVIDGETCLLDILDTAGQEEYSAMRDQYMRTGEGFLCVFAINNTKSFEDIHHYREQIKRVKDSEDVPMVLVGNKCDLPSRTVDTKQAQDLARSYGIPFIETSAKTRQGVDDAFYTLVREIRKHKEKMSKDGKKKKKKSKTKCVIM
The assay is described as follows: HTRF resonance energy transfer assay, K-Ras G12D / SOS1 interaction. Conditions: HTRF assay of Example 5; read-out: IC50 against K-Ras G12D. The assay is classed as biochemical. The procedure, abridged:
as §1

The next assay deals with T4, K-Ras G12S (Homo sapiens, UniProt P01116, G12S).
T4 construct: made in house; host or cells: E. coli BL21 (DE3)
T4 sequence (P01116 1-188 isoform P01116-2 G12S): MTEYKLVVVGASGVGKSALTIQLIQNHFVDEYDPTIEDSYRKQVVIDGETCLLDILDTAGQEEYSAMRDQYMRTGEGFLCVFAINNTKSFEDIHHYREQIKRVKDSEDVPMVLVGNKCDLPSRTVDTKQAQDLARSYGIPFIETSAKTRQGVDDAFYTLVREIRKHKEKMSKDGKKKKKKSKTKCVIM
In words: HTRF resonance energy transfer assay, K-Ras G12S / SOS1 interaction. The following applies: HTRF assay of Example 5; read-out: IC50 against K-Ras G12S. The assay is classed as biochemical. A digest of the protocol:
as §1

What is called IC50 is the midpoint of a concentration-inhibition curve.

Each structure is given as a SMILES string.

T1 sequence (P01116 1-188 isoform P01116-2): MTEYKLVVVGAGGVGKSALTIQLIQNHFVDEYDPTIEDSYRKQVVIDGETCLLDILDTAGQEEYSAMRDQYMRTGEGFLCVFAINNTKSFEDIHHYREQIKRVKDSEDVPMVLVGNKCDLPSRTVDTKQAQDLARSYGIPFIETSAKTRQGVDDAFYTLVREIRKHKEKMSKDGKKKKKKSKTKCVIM

With `CC1COc2c(Cl)c(-c3ccc(F)c4sc(N)c(C#N)c34)c(F)c3nc(OC[C@@]45CCCN4C[C@H](F)C5)nc(c23)N1CC(F)F` (single isomer, unassigned) [Compound 616], the IC50 was below 100 nM at K-Ras WT; below 100 nM on K-Ras G12V; below 5000 nM with SW620 cells; below 100 nM at K-Ras G12D; below 100 nM on K-Ras G12S.
For `N#Cc1c(N)sc2c(F)ccc(-c3c(Cl)c4c5c(nc(OC[C@@]67CCCN6C[C@H](F)C7)nc5c3F)N(CC(F)F)[C@@H](C=C(F)F)CO4)c12` (single isomer, unassigned) [Compound 751], the half-inhibitory concentration (IC50) on K-Ras WT was below 100 nM; at K-Ras G12V it was below 100 nM; in the assay with SW620 cells, below 5000 nM; at K-Ras G12D it was below 100 nM; on K-Ras G12S, below 100 nM.
In the case of `CN(C)C(=O)C1CC(N2CCOc3c(Cl)c(-c4ccc(F)c5sc(N)c(C#N)c45)c(F)c4nc(OC[C@@]56CCCN5C[C@H](F)C6)nc2c34)C1` (single isomer, unassigned) [Compound 754], the IC50 at K-Ras WT was below 100 nM; at K-Ras G12V, below 100 nM; in the assay with SW620 cells, below 5000 nM; on K-Ras G12D, below 100 nM; at K-Ras G12S, below 100 nM.
In the case of `N#Cc1c(N)sc2c(F)ccc(-c3c(Cl)c4c5c(nc(OC[C@@]67CCCN6C[C@H](F)C7)nc5c3F)N(CC3CC3C#N)[C@@H](C3(O)CC3)CO4)c12` (single isomer, unassigned) [Compound 821], the IC50 at K-Ras WT was below 100 nM; on K-Ras G12V, below 100 nM; with SW620 cells, below 5000 nM; at K-Ras G12D, below 100 nM; on K-Ras G12S it was below 100 nM.
On to `CC[C@H]1COc2c(Cl)c(-c3ccc(F)c4sc(N)c(C#N)c34)c(F)c3nc(OC[C@@]45CCCN4C[C@H](F)C5)nc(c23)N1CC(F)F` [Compound 619, 2-amino-4-((5S)-8-chloro-4-(2,2-difluoroethyl)-5-ethyl-10-fluoro-2-(((2R,7aS)-2-fluorotetrahydro-1H-pyrrolizin-7a(5H)-yl)methoxy)-5,6-dihydro-4H-[1,4]oxazepino[5,6,7-de]quinazolin-9-yl)-7-fluorobenzo[b]thiophene-3-carbonitrile], for which the IC50 on K-Ras WT is below 100 nM; at K-Ras G12V, below 100 nM; in the assay on SW620 cells it was below 5000 nM; at K-Ras G12D it was below 100 nM; on K-Ras G12S, below 100 nM.
Take `COC(C)[C@H]1COc2c(Cl)c(-c3ccc(F)c4sc(N)c(C#N)c34)c(F)c3nc(OC[C@@]45CCCN4C[C@H](F)C5)nc(c23)N1CC(F)F` (stereo partly drawn) [Compound 630, 2-amino-4-((5R)-8-chloro-4-(2,2-difluoroethyl)-10-fluoro-2-(((2R,7aS)-2-fluorotetrahydro-1H-pyrrolizin-7a(5H)-yl)methoxy)-5-(1-methoxyethyl)-5,6-dihydro-4H-[1,4]oxazepino[5,6,7-de]quinazolin-9-yl)-7-fluorobenzo[b]thiophene-3-carbonitrile]: the IC50 is below 100 nM at K-Ras WT; below 100 nM on K-Ras G12V; below 5000 nM in the assay with SW620 cells; below 100 nM at K-Ras G12D; below 100 nM at K-Ras G12S.
In the case of `CC(O)C1COc2c(Cl)c(-c3ccc(F)c4sc(N)c(C#N)c34)c(F)c3nc(OC[C@@]45CCCN4C[C@H](F)C5)nc(c23)N1CC1CCNC1` (stereo partly drawn) [Compound 632, 2-amino-4-(8-chloro-10-fluoro-2-(((2R,7aS)-2-fluorotetrahydro-1H-pyrrolizin-7a(5H)-yl)methoxy)-5-(1-hydroxyethyl)-4-(pyrrolidin-3-ylmethyl)-5,6-dihydro-4H-[1,4]oxazepino[5,6,7-de]quinazolin-9-yl)-7-fluorobenzo[b]thiophene-3-carbonitrile], the IC50 is below 100 nM at K-Ras WT; below 100 nM on K-Ras G12V; below 5000 nM in the assay on SW620 cells; below 100 nM at K-Ras G12D; below 100 nM at K-Ras G12S.
Consider `CN(C)C1CCC(N2CCOc3c(Cl)c(-c4ccc(F)c5sc(N)c(C#N)c45)c(F)c4nc(OC[C@@]56CCCN5C[C@H](F)C6)nc2c34)C1` (stereo partly drawn) [Compound 677, 2-amino-4-(8-chloro-4-(3-(dimethylamino)cyclopentyl)-10-fluoro-2-(((2R,7aS)-2-fluorotetrahydro-1H-pyrrolizin-7a(5H)-yl)methoxy)-5,6-dihydro-4H-[1,4]oxazepino[5,6,7-de]quinazolin-9-yl)-7-fluorobenzo[b]thiophene-3-carbonitrile], for which the IC50 on K-Ras WT was below 100 nM; on K-Ras G12V it was below 100 nM; with SW620 cells, below 5000 nM; at K-Ras G12D, below 100 nM; on K-Ras G12S it was below 100 nM.
For the compound `CN(CCCN1c2nc(OC[C@@]34CCCN3C[C@H](F)C4)nc3c(F)c(-c4ccc(F)c5sc(N)c(C#N)c45)c(Cl)c(c23)OCC1CC#N)C(=O)[C@H]1CN1` (stereo partly drawn) [Compound 709, (2R)—N-(3-(9-(2-amino-3-cyano-7-fluorobenzo[b]thiophen-4-yl)-8-chloro-5-(cyanomethyl)-10-fluoro-2-(((2R,7aS)-2-fluorotetrahydro-1H-pyrrolizin-7a(5H)-yl)methoxy)-5,6-dihydro-4H-[1,4]oxazepino[5,6,7-de]quinazolin-4-yl)propyl)-N-methylaziridine-2-carboxamide], the IC50 at K-Ras WT was below 100 nM; at K-Ras G12V, below 100 nM; with SW620 cells it was below 5000 nM; on K-Ras G12D, below 100 nM; at K-Ras G12S it was below 100 nM.
For the compound `CC(C)[C@H](N)C(=O)N1CCC(N2C[C@H](C)Oc3c(Cl)c(-c4ccc(F)c5sc(N)c(C#N)c45)c(F)c4nc(OC[C@@]56CCCN5C[C@H](F)C6)nc2c34)C1` (stereo partly drawn) [Compound 714, 4-((6S)-4-(1-(L-valyl)pyrrolidin-3-yl)-8-chloro-10-fluoro-2-(((2R,7aS)-2-fluorotetrahydro-1H-pyrrolizin-7a(5H)-yl)methoxy)-6-methyl-5,6-dihydro-4H-[1,4]oxazepino[5,6,7-de]quinazolin-9-yl)-2-amino-7-fluorobenzo[b]thiophene-3-carbonitrile], the IC50 at K-Ras WT is below 100 nM; at K-Ras G12V, below 100 nM; in the assay on SW620 cells it was below 5000 nM; at K-Ras G12D, below 100 nM; on K-Ras G12S it was below 100 nM.
On to `N#Cc1c(N)sc2c(F)ccc(-c3c(Cl)c4c5c(nc(OC[C@@]67CCCN6C[C@H](F)C7)nc5c3F)N(Cc3ccnn3CC(F)F)CCO4)c12` [Compound 720, 2-amino-4-(8-chloro-4-((1-(2,2-difluoroethyl)-1H-pyrazol-5-yl)methyl)-10-fluoro-2-(((2R,7aS)-2-fluorotetrahydro-1H-pyrrolizin-7a(5H)-yl)methoxy)-5,6-dihydro-4H-[1,4]oxazepino[5,6,7-de]quinazolin-9-yl)-7-fluorobenzo[b]thiophene-3-carbonitrile], for which the IC50 was below 100 nM on K-Ras WT; below 100 nM at K-Ras G12V; below 5000 nM with SW620 cells; below 100 nM on K-Ras G12D; below 100 nM at K-Ras G12S.
Consider `C[C@H]1COc2c(Cl)c(-c3ccc(F)c4sc(N)c(C#N)c34)c(F)c3nc(OC[C@@]45CCCN4C[C@H](F)C5)nc(c23)N1C1CCOC1` (stereo partly drawn) [Compound 750, 2-amino-4-((5S)-8-chloro-10-fluoro-2-(((2R,7aS)-2-fluorotetrahydro-1H-pyrrolizin-7a(5H)-yl)methoxy)-5-methyl-4-(tetrahydrofuran-3-yl)-5,6-dihydro-4H-[1,4]oxazepino[5,6,7-de]quinazolin-9-yl)-7-fluorobenzo[b]thiophene-3-carbonitrile], for which the IC50 at K-Ras WT is below 100 nM; at K-Ras G12V, below 100 nM; with SW620 cells, below 5000 nM; at K-Ras G12D, below 100 nM; on K-Ras G12S, below 100 nM.
